Broadly, the Ki is a dissociation constant, usually derived from enzyme kinetics or from competition with a known ligand.

These results are taken from US20060063759A1, “Tricyclic steroid hormone nuclear receptor modulators” (priority 2002, published 2006).

One assay deals with T1, human MR (Homo sapiens, UniProt P08235).
T1 construct: The full length human MR gene is cloned from a human kidney or human brain cDNA library; His tag from the pAcHLT vector (own knowledge); made in house; host or cells: Sf9 insect cells (baculovirus, pAcHLT transfer vector)
T1 sequence (P08235 1-984): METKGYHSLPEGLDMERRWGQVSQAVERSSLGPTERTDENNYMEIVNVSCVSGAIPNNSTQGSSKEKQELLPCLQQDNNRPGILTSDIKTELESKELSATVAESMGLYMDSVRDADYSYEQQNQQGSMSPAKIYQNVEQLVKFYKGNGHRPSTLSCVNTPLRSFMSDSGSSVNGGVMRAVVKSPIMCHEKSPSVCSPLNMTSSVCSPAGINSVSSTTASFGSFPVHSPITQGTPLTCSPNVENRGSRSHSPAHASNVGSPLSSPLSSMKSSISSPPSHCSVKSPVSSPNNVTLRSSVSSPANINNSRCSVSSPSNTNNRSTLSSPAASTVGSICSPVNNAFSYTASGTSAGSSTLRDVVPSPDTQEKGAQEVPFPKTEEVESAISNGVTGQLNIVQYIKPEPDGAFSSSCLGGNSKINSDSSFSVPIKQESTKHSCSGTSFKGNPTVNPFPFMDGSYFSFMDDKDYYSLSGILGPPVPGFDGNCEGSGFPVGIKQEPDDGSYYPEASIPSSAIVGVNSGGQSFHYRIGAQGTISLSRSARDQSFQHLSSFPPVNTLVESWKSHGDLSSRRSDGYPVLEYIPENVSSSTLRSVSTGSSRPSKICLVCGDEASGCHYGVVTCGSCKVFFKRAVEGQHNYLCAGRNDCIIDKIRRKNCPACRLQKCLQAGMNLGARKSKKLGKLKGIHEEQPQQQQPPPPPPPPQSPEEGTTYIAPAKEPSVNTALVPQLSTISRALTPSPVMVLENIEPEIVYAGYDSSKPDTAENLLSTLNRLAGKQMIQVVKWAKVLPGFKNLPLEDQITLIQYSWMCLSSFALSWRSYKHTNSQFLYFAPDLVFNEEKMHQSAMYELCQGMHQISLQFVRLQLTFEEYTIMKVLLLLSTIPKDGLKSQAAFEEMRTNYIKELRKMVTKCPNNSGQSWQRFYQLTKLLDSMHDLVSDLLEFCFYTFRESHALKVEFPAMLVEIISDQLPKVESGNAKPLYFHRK
The experiment in a line: Mineralocorticoid Receptor Binding Assay ([3H]-aldosterone). The note with it: [3H]-aldosterone binding, human MR expressed in Sf9 cells; read-out: MR Ki. The procedure:
(§1) All ligands, radioligands, solvents, and reagents employed in the binding assays are readily available from commercial sources, or can be readily synthesized by the ordinarily skilled artisan.
The full length human MR gene is cloned from a human kidney or human brain cDNA library. […] The PCR reaction is performed in a final volume of 50 μl containing about 1 μl of a 50× stock solution of polymerase; about 1 μl of a 50× stock solution of dNTP; about 5 μl of an appropriate PCR buffer; about 1 μl of each primer; about […] of a H. kidney or H. brain cDNA library; and about 36 μl of water. The reaction is allowed to denature for about 30 seconds at 95 degrees Celsius, anneal for about 30 seconds at 55 degrees Celsius, and extend for about 5 minutes at 72 degrees Celsius, the sequence being repeated for a total of about 35 cycles. […] To extract the cDNA product from the agarose gel, the QIAEX II Gel Extraction protocol (QIAGEN, Inc.) is employed according to the manufacturer's instructions. Following extraction, the MR cDNA is cloned into an appropriate cloning vector (Zero Blunt TOPO PCR Cloning Kit Invitrogen, Inc.) and a pAcHLT-baculovinis transfer vector (B.D./Pharminogen), then expressed in SF9 insect cells, essentially according to manufacturer's instructions. Sf9 cells are grown at a scale where gram quantity cell pellets are obtained for subsequent use in the MR binding assay. Harvested cell pellets are lysed by repeated freeze-thaw cycles (about 4) in a suitable lysis buffer then centrifuged at about 1×10^3 G (with the supernatant being saved for future assays).
MR binding assays are performed in a final total volume of about 250 μl containing about 20-25 μg of protein and 0.5 nM of [^3H]-aldosterone plus varying concentrations of test compound or vehicle. The assay binding buffer consists of 30 mM sodium molybdate, 30 mM of TRIS-HCl, 5 mM sodium phosphate, 5 mM sodium pyrophosphate, and about 10% glycerol, pH=7.5.
Incubations are carried out at 4 degrees Celsius with shaking for about 16 hours. 200 μl aliquots of each incubation are filtered onto Millipore HA 0.45 micron 96-well filter plates, pre-moistened with cold 30 mM TRIS-HCl. The filter plates are suctioned dry with vacuum and immediately washed 3× with cold 30 mM TRIS-HCl. The plates are then punched out and the amount of receptor-ligand complex is determined by liquid scintillation counting using 4 ml of Ready Protein Plus™ liquid scintillation cocktail.
IC50 values (defined as the concentration of test compound required to decrease [^3H]-aldosterone binding by 50%/o) are then determined.

The target of another assay is T2, glucocorticoid receptor (Homo sapiens, UniProt P04150).
T2 construct: containing 50-200 ug of A549 cell extract and 1.86 nM [^3H]-dexamethasone; host or cells: A549 human lung epithelial cells (sonicated cell extract)
T2 sequence (P04150 1-777): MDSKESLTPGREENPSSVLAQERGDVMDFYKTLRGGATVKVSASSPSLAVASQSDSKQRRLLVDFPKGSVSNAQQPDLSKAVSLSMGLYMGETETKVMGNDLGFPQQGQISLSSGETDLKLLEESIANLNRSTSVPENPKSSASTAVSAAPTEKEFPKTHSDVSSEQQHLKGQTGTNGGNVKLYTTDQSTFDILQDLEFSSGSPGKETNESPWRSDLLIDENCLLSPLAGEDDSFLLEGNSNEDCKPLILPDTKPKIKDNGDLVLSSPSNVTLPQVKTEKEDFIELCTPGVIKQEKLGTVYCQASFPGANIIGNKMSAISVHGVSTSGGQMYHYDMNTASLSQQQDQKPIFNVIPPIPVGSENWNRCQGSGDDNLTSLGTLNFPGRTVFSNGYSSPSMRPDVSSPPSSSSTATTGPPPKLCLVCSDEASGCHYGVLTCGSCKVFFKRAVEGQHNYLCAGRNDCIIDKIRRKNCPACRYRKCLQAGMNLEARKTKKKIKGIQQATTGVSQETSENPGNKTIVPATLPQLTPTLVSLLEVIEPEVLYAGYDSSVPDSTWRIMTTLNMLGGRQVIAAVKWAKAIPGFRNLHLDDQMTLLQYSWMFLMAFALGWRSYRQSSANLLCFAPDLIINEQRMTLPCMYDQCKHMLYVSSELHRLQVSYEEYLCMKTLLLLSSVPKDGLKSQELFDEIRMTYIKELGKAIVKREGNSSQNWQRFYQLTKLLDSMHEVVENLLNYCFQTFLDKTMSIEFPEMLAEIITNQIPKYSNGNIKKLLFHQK
The experiment in a line: Glucocorticoid Receptor Binding Assay ([3H]-dexamethasone, A549 cell extract). To be noted: [3H]-dexamethasone binding, read-out: GR Ki. Here is the method:
as §1
A549 human lung epithelial cells (ATCC) are grown at a scale where gram quantity cell pellets are obtained. Harvested cell pellets are washed twice in cold phosphate buffered saline, centrifuged, and resuspended in cold assay binding buffer. The assay binding buffer consists of 10% glycerol, 50 mM Tris-HCl (pH7.2), 75 mM sodium chloride, 1.5 mM magnesium chloride, 1.5 mM EDTA, and 10 mM sodium molybdate. Cell suspensions were lysed via sonication, centrifuged, and the “extract” supernatant is snap frozen and stored at −80 C until needed.
GR binding assays are performed in a final volume of 140 ul containing 50-200 ug of A549 cell extract and 1.86 nM [^3H]-dexamethasone (Amersham) plus varying concentrations of test compound or vehicle. Briefly, assays are prepared at RT in 96-well Fisher 3356 plates, each well containing 100 ul of A549 cell extract, 20 ul of [^3H]-dexamethasone, and 20 ul of test compound/vehicle. Incubations are carried out at 4 degrees Celsius for 16 hours. After incubation, 70 ul of 3× dextran-coated charcoal solution is added to each reaction, mixed, and incubated for 8 minutes at RT. 3×-dextran-coated charcoal solution consists of 250 ml assay binding buffer, 3.75 g Norit A charcoal (Sigma), and 1.25 g dextran T-70 (Amersham). Charcoal/unbound radioligand complexes are removed by centrifugation of the plate and 140 ul of supernatant from each well is transferred to another 96 well Optiplate (Packard Instruments). 200 ul of Microscint-20 scinillant (Packard Instruments) is added to each well and amount of receptor bound radioligand is determined using Packard Instruments TopCount instrument.

Take `CS(=O)(=O)Nc1ccc(C=C2c3ccccc3CCc3c(Cl)cccc32)cc1` (mixture of isomers) [Example 210, N-[4-(1-Chloro-10,11-dihydro-dibenzo[a,d]cyclohepten-5ylidenemethyl)-phenyl]-methanesulfonamide]: the figures for the Ki at human MR and on glucocorticoid receptor were below 0.5 µM and below 1 µM, respectively.

For the compound `Oc1ccc(C=C2c3ccccc3CCc3c(Cl)cccc32)cc1` (mixture of isomers) [Example 212, 4-(1-Chloro-10,11-dihydro-dibenzo[a,d]cyclohepten-5-ylidenemethyl)-phenol], the Ki was below 0.5 µM at human MR and below 1 µM at glucocorticoid receptor.

Turning to `CS(=O)(=O)Nc1cccc(C=C2c3ccccc3CCc3ccc(F)cc32)c1` (mixture of isomers) [Example 214, N-[3-(3-Fluoro-10,11-dihydro-dibenzo[a,d]cyclohepten-5-ylidenemethyl)-phenyl]-methanesulfonamide], the Ki on human MR and at glucocorticoid receptor was below 0.5 µM throughout.

Turning to `Oc1cccc(C=C2c3ccccc3CCc3ccc(F)cc32)c1` (mixture of isomers) [Example 215, 3-(3-Fluoro-10,11-dihydro-dibenzo[a,d]cyclohepten-5-ylidenemethyl)-phenol], the Ki at human MR and at glucocorticoid receptor was below 0.5 µM in each case.

`Nc1cccc(C=C2c3ccccc3CCc3cc(Cl)ccc32)c1` (mixture of isomers) [Example 289, 3-(2-Chloro-10,11-dihydro-dibenzo[a,d]cyclohepten-5-ylidenemethyl)-phenylamine]: the Ki at human MR was below 0.5 µM; on glucocorticoid receptor, below 1 µM.

`O=C1Nc2ccccc2C(=Cc2cccc(Cl)c2)c2ccccc21` (mixture of isomers) [Example 649]: the Ki at human MR is below 0.5 µM; on glucocorticoid receptor it was below 10 µM.

As to `O=C1Nc2ccc(Cl)cc2C(=Cc2cccc(Cl)c2)c2ccccc21` (mixture of isomers) [Example 655], the Ki on human MR and at glucocorticoid receptor was below 0.5 µM in each case.

With `CS(=O)(=O)Nc1cccc(CC2c3ccccc3CCc3cc(Cl)ccc32)c1` (racemic) [Example 207, N-[3-(2-Chloro-10,11-dihydro-5H-dibenzo[a,d]cycloheptenylmethyl)-phenyl]-methanesulfonamide], the Ki at human MR and on glucocorticoid receptor was below 0.5 µM each time.

In the case of `COc1ccc2c(c1)COc1ccccc1C2C(C)c1cccc(NS(C)(=O)=O)c1` (racemic) [Example 752, N-{3-[1-(8-Methoxy-6,11-dihydro-dibenzo[b,e]oxepin-11-yl)-ethyl]-phenyl}-methanesulfonamide], the Ki at human MR and at glucocorticoid receptor was below 0.5 µM throughout.

Consider `Oc1cc(C=C2c3ccccc3CCc3c(Cl)cccc32)ccc1Cl` [173(a), 2-Chloro-5-(1-chloro-10,11-dihydro-dibenzo[a,d]cyclohepten-5-ylidenemethyl)-phenol], for which the Ki on human MR and at glucocorticoid receptor was below 0.5 µM in each case.

Regarding `Oc1cc(C=C2c3ccccc3CCc3c(Cl)cccc32)ccc1Cl` [173(b), 2-Chloro-5-(1-chloro-10,11-dihydro-dibenzo[a,d]cyclohepten-5-ylidenemethyl)-phenol], the values for the Ki on human MR and at glucocorticoid receptor were below 0.5 µM and below 10 µM, respectively.

For `Oc1cccc(C=C2c3ccccc3CCc3cc(Cl)ccc32)c1` [181(a), 3-(2-Chloro-10,11-dihydro-dibenzo[a,d]cyclohepten-5-ylidenemethyl)-phenol], the Ki on human MR and on glucocorticoid receptor was below 0.5 µM each time.

With `CS(=O)(=O)Nc1cccc(C=C2c3ccccc3CCc3c(F)cccc32)c1` [184(a), N-[3-(1-Fluoro-10,11-dihydro-dibenzo[a,d]cyclohepten-5-ylidenemethyl)-phenyl]-methanesulfonamide], the inhibition constant Ki at human MR and at glucocorticoid receptor was below 0.5 µM in each case.

Turning to `Oc1cccc(C=C2c3ccccc3CCc3c(F)cccc32)c1` [185(a), 3-(1-Fluoro-10,11-dihydro-dibenzo[a,d]cyclohepten-5-ylidenemethyl)-phenol], the Ki on human MR and on glucocorticoid receptor was below 0.5 µM in each case.

Take `Oc1cccc(C=C2c3ccccc3CCc3c(F)cccc32)c1` [185(b), 3-(1-Fluoro-10,11-dihydro-dibenzo[a,d]cyclohepten-5-ylidenemethyl)-phenol]: the Ki at human MR is below 0.5 µM; at glucocorticoid receptor it was below 1 µM.
